The text below walks through data of patent US4304781A, “Treatment of ulcers and hypertension” (John Wyeth & Brother Limited, priority 1978, dated 1981).

Holding throughout (format): in vivo
The test system of one assay is stress-induced erosion. The experiment in a line: Stress-induced erosion test (Senay & Levine), anti-ulcer activity. The protocol:
(§1) Anti-ulcer activity was determined by the stress-induced erosion test of Senay & Levine, Proc. Soc. Exp. Biol. Med., 124, 1221-1223 (1967) and anti-secretory activity by the test of H. Shay, D. Sun and H. Greenstin, Gastroenterology, 1954, 26, 903-913 as exemplified by Beattie et al J. Med. Chem., 20, 714 (1977). […] However, some compounds show activity in tests for anti-hypertensive activity.

For the next assay, the system named is hypersecretion. As to the kind of experiment: Anti-secretory activity test (Shay et al). Further details: key to Anti-secretory, % change in Vol.: NS: Not Significant. Particulars: for change in vivo at 30 mg/kg / change in vivo at 10 mg/kg: read-out: Anti-secretory, % change in Vol.; for change in vivo at 30 mg/kg / Anti-secretory, % change in Vol.: 30 mg/kg. The protocol: as §1

In assay [1] the test system is male spontaneously hypertensive rats. As to the kind of experiment: Antihypertensive activity, Procedure A: systolic pressure of spontaneously hypertensive rats. The protocol: Systolic pressure of male spontaneously hypertensive rats is measured by an indirect technique using the Decker Caudal Plethysmograph or other appropriate sensor. Groups usually consist of 4 rats. Drugs are usually administered orally. Pressures are usually read prior to drug administration and at 1.5, 4 and 24 hours thereafter. This schedule may be altered depending upon the behaviour of the drug.

Regarding `C[n+]1ccccc1SCc1ccccc1` [Example 1, 2-Benzylthio-1-methylpyridinium bromide], in the assay with stress-induced erosion, at 30 mg/kg the inhibition in vivo was 92% and the inhibition in vivo at 100 mg/kg came to 75%. Further, the change in vivo at 30 mg/kg in the assay with hypersecretion was -71%.
For the molecule `C[n+]1ccccc1SCCc1ccccc1` [Example 2, 1-Methyl-2-(2-phenylethylthio) pyridinium bromide], in the assay with stress-induced erosion, the inhibition in vivo at 30 mg/kg is 83% and 100 mg/kg produced 67% inhibition in vivo. In addition, in the assay on hypersecretion, the change in vivo at 10 mg/kg is -20% and the change in vivo at 30 mg/kg was -56%. Besides, the “Antihypertensive activity (Procedure A)” value in assay [1] (75 mg/kg orally) was “showed activity”.
On to `C[n+]1ccccc1SCc1ccc(Cl)cc1` [Example 3, 2-(4-Chlorobenzylthio)-1-methylpyridinium chloride], for which 100 mg/kg produced 83% inhibition in vivo in the assay on stress-induced erosion. The change in vivo at 30 mg/kg in the assay on hypersecretion is -77%. Moreover, in assay [1] (75 mg/kg orally), the “Antihypertensive activity (Procedure A)” value is “inactive”.
For `C[n+]1ccccc1SCc1ccc(Cl)c(Cl)c1` [Example 4, 2-(3,4-Dichlorobenzylthio)-1-methylpyridinium chloride], in that order: 67%, -45% and “showed activity”.
As for `C[n+]1ccccc1SCc1ccc([N+](=O)[O-])cc1` [Example 6, 1-Methyl-2-(4-nitrobenzylthio)pyridinium bromide], at 100 mg/kg the inhibition in vivo in the assay on stress-induced erosion was 84%. Besides, the “Anti-secretory, % change in Vol.” value in the assay with hypersecretion was “NS”.
For `C[n+]1ccccc1SCCCc1ccccc1` [Example 7, 1-Methyl-2-(3-phenylpropylthio)pyridinium bromide], in that order: 77% and “NS”.
In the assay with stress-induced erosion, `Cc1ccc(CSc2cccc[n+]2C)cc1C` [Example 8, 1-Methyl-2-(3,4-dimethylbenzylthio)pyridinium chloride] showed an inhibition in vivo at 30 mg/kg of 70% and an inhibition in vivo at 100 mg/kg of 62%. In the assay on hypersecretion, the “Anti-secretory, % change in Vol.” value is “NS”.
With `CC(CSc1cccc[n+]1C)c1ccccc1` (stereo not drawn) [Example 9, 1-Methyl-2-(2-phenylpropylthio)pyridinium bromide], the change in vivo at 30 mg/kg with hypersecretion is -32%.
`Cc1ccc(CSc2cccc[n+]2C)cc1` [Example 10, 1-Methyl-2(4-methylbenzylthio)pyridinium bromide]: the change in vivo at 30 mg/kg in the assay with hypersecretion was -43%.
As for `C[n+]1ccccc1SCc1ccc(Br)cc1` [Example 13, 2-(4-Bromobenzylthio)-1-methylpyridinium bromide], in the assay on stress-induced erosion, the inhibition in vivo at 30 mg/kg came out at 73% and at 100 mg/kg the inhibition in vivo was 70%. The “Anti-secretory, % change in Vol.” value in the assay on hypersecretion was “NS”.
On to `C[n+]1ccccc1SCc1ccc(OCc2ccccc2)cc1` [Example 14, 2-(((4-Benzyloxy)benzyl)thio)-1-methylpyridinium chloride], for which 10 mg/kg produced 60% inhibition in vivo in the assay on stress-induced erosion (10 mg/kg). In the assay with stress-induced erosion, 30 mg/kg produced 73% inhibition in vivo and the inhibition in vivo at 100 mg/kg amounted to 90%. In the assay with hypersecretion, the change in vivo at 10 mg/kg is -19% and the change in vivo at 30 mg/kg is -49%.
As to `C[n+]1ccccc1SCC=Cc1ccccc1` [Example 16, 2-Cinnamylthio-1-methylpyridinium bromide], the change in vivo at 30 mg/kg with hypersecretion was -55%.
`CCOC(OCC)c1ccc[n+](-c2ccccc2)c1SCc1ccccc1` [Example 19, 2-Benzylthio-3-(diethoxy)methyl-1-phenylpyridinium chloride]: the change in vivo at 30 mg/kg in the assay on hypersecretion was -88%.
For `C[n+]1ccccc1SCc1ccccc1F` [Example 20, 2-((2-Fluorobenzyl)thio)-1-methyloyridinium chloride], in the assay on stress-induced erosion, testing at 30 mg/kg gave an inhibition in vivo of 76% and the inhibition in vivo at 100 mg/kg is 70%. For the same molecule, in the assay with hypersecretion, the change in vivo at 10 mg/kg is -54% and the change in vivo at 30 mg/kg was -90%.
As for `C[n+]1ccccc1SCc1ccc(F)cc1` [Example 21, 2((4-Fluorobenzyl)thio)-1-methylpyridinium chloride], in the assay with stress-induced erosion, testing at 30 mg/kg gave an inhibition in vivo of 71% and the inhibition in vivo at 100 mg/kg amounted to 82%. In the assay with hypersecretion, the change in vivo at 30 mg/kg is -67%.
The matching figures for `C[n+]1ccccc1SCc1cccc(F)c1` [Example 22, 2-((-3-Fluorobenzyl)thio)-1-methylpyridinium chloride]: 64%, 72% and -69%.
In the assay with stress-induced erosion, `C[n+]1ccc(SCc2ccccc2)cc1` [Example 23, 4-Benzylthio-1-methylpyridinium bromide] had an inhibition in vivo at 30 mg/kg of 70% and an inhibition in vivo at 100 mg/kg of 80%. In addition, the “Anti-secretory, % change in Vol.” value in the assay on hypersecretion is “NS”.
With `C[n+]1ccc(SCc2cccc(Cl)c2)cc1` [Example 24, 4-((3-Chlorobenzyl)thio)-1-methylpyridinium chloride], in the assay on stress-induced erosion, the inhibition in vivo at 30 mg/kg worked out at 60% and testing at 100 mg/kg gave an inhibition in vivo of 23%. Besides, in the assay with hypersecretion, the change in vivo at 30 mg/kg was -40%.
For `Cc1cccc(CSc2cccc[n+]2C)c1` [Example 25, 1-Methyl-2-((3-methylbenzyl)thio)pyridinium chloride], in that order: 75%, 80% and -69%.
Consider `COc1ccc(CSc2cccc[n+]2C)cc1` [Example 26, 2-((4-Methoxybenzyl)thio)-1-methylpyridinium chloride], for which the change in vivo at 30 mg/kg with hypersecretion is -46%.
For `C[n+]1ccccc1SCc1ccccc1Cl` [Example 27, 2-((2-Chlorobenzyl)thio)-1-methylpyridinium chloride], in the assay on hypersecretion, the change in vivo at 10 mg/kg is -39% and the change in vivo at 30 mg/kg was -66%.
In the case of `C[n+]1ccccc1SCc1cc(Cl)cc(Cl)c1` [Example 28, 2-(3,5-Dichlorobenzyl)thio)-1-methylpyridinium chloride], in the assay with hypersecretion, the change in vivo at 30 mg/kg was -55%.
In turn, `C[n+]1cccc(C=O)c1SCc1ccccc1` [Example 29, 2-Benzylthio-3-formyl-1-methylpyridinium bromide] returned an inhibition in vivo at 100 mg/kg in the assay on stress-induced erosion of 71%. In addition, the change in vivo at 30 mg/kg in the assay with hypersecretion is -48%.
For `OCc1ccc[n+](-c2ccccc2)c1SCc1ccccc1` [Example 30, 2-Benzylthio-3-hydroxymethyl-1-phenylpyridinium bromide], in that order: 71% and -42%.
For `Clc1cccc(CSc2ccncc2)c1` [Example 31, 4((3-Chloro)benzylthio)pyridine], in that order: 62% and -34%.
The molecule `C[n+]1ccccc1SCc1cccc([N+](=O)[O-])c1` [Example 32, 1-Methyl-2-((3-nitro)benzylthio)pyridinium chloride] had an inhibition in vivo at 100 mg/kg in the assay with stress-induced erosion of 73%. In addition, the “Anti-secretory, % change in Vol.” value in the assay on hypersecretion is recorded as “NS”.
The matching figures for `Cc1ccccc1CSc1cccc[n+]1C` [Example 33, 1-Methyl-2-((2-methyl)benzylthio)pyridinium bromide]: 73% and “NS”.
The molecule `c1ccc(CSc2ccncc2)cc1` [Example 34, 4-Benzylmercaptopyridine] had an inhibition in vivo at 100 mg/kg in the assay with stress-induced erosion of 64%. In addition, the “Anti-secretory, % change in Vol.” value in the assay with hypersecretion is reported as “NS”.
In the case of `C[n+]1ccccc1SCc1cccc(I)c1` [Example 35, 2-((3-Iodobenzyl)thio)-1-methylpyridinium chloride], the inhibition in vivo at 100 mg/kg with stress-induced erosion was 67%. In addition, the change in vivo at 30 mg/kg in the assay on hypersecretion is -41%.
Take `COc1cccc(CSc2cccc[n+]2C)c1` [Example 36, 2-((3-Methoxybenzyl)thio)-1-methylpryridinum chloride]: in the assay on stress-induced erosion, the inhibition in vivo at 100 mg/kg was found to be 69%. Besides, the “Anti-secretory, % change in Vol.” value in the assay on hypersecretion is “NS”.
For `C[n+]1ccccc1SCc1cccc(C(F)(F)F)c1` [Example 37, 1-Methyl-2-((3-trifluoromethylbenzyl)thio)pyridinium chloride], the “Anti-secretory, % change in Vol.” value with hypersecretion was “NS”. Besides, in assay [1] (50 mg/kg orally), the “Antihypertensive activity (Procedure A)” value was “showed activity”.
With `c1ccc(CSc2ccccn2)cc1` [Example 38, 2-((Benzyl)thio)pyridine], the change in vivo at 30 mg/kg in the assay with hypersecretion is -32%.
As for `C[n+]1ccccc1SC(c1ccccc1)c1ccccc1` [Example 39, 2-((Diphenylmethyl)thio)-1-methyloyridinium bromide], the “Anti-secretory, % change in Vol.” value in the assay on hypersecretion was “NS”. Moreover, the “Antihypertensive activity (Procedure A)” value in assay [1] (50 mg/kg orally) was “showed activity”.
`C[n+]1ccccc1SCCCCc1ccccc1` [Example 40, 1-Methyl-2-((4-phenylbutyl)thio)pyridinium bromide] registered an inhibition in vivo at 100 mg/kg with stress-induced erosion of 67%. For the same molecule, the change in vivo at 30 mg/kg with hypersecretion is -36%.
For the molecule `O=[N+]([O-])c1ccc(C[n+]2ccccc2SCc2ccccc2)cc1` [Example 41, 1-(4-Nitrobenzyl)-2-(benzylthio)-pyridinium bromide], in the assay with stress-induced erosion, the inhibition in vivo at 100 mg/kg came to 69%. For the same molecule, the “Anti-secretory, % change in Vol.” value in the assay with hypersecretion is given as “NS”.
Turning to `c1ccc(CSC2=NCCCC2)cc1` [Example 43, 2-Benzylthio-3,4,5,6-tetrahydropyridine], the change in vivo at 30 mg/kg with hypersecretion is -48%.
Still for that read-out and setting: as for `C[N+]1=C(SCc2ccccc2)CCCC1` [Example 44, 2-Benzylthio-3,4,5,6-tetrahydro-1-methylpyridinium bromide], the figure is -52%; as for `c1ccc(CSc2cccc[n+]2Cc2ccccc2)cc1` [Example 45, 1-Benzyl-2-(benzylthio)pyridinium bromide], -75%.
